{
  "source": "patent US7977484B2",
  "about": "“Crystalline form of cyano-1-cyclopropy1-7-1S,6S-2,8-diazabicyclo[4.3.0]nonan-8-yl)-6-fluoro-1,4-dihydro-4-oxo-3-quinoline carboxylic acid” (Bayer Animal Health GmbH, priority 2004, dated 2011)",
  "key": {"[1]": {"assay": "water uptake from the air (hygroscopicity)", "assay_type": "physicochemical"}, "[2]": {"assay": "storage stability of the crystal form", "assay_type": "physicochemical", "details": "prolonged storage"}},
  "data": [
    {"compound": "N#Cc1c(N2C[C@@H]3CCCN[C@@H]3C2)c(F)cc2c(=O)c(C(=O)O)cn(C3CC3)c12", "note": "[Pradofloxacin trihydrate, pradofloxacin trihydrate]", "values": [
      {"measurement": "tendency to take up further water from the air", "setting": "[1]", "value": "does not show any tendency to take up further water from the air"},
      {"measurement": "conversion to other crystal forms", "setting": "[2]", "value": "not converted to other crystal forms"}
    ]}
  ]
}
